Earlier results, collected in US20100016582A1 (Wyeth, priority 2008, published 2010).

Tests used:
[1] = drug formulations; acetic acid
[2] = contact with a solvent or solvent mixture (e.g., ethyl acetate and ethanol)
[3] = test system: ovariectomized rat model of osteopenia
uterine response = settings: preclinical models of uterine stimulation
[4] = test system: MCF-7 cell line (human breast cancer cell line)

Row | conversion of Form A to Form B [2] | Structure (SMILES) | bioavailability [1] | prevention of bone loss [3] | reduction of cholesterol [3] | stimulation of uterine response (uterine response) | estrogen antagonist behaviour [4]
1 | can easily convert to Form B | Cc1c(-c2ccc(O)cc2)n(Cc2ccc(OCCN3CCCCCC3)cc2)c2ccc(O)cc12 [Form A, 1-[4-(2-azepan-1-yl-ethoxy)-benzyl]-2-(4-hydroxy-phenyl)-3-methyl-1H-indol-5-ol acetic acid] | better bioavailability in some drug formulations | – | – | – | –
2 | – | Cc1c(-c2ccc(O)cc2)n(Cc2ccc(OCCN3CCCCCC3)cc2)c2ccc(O)cc12 [bazedoxifene acetate, 1-[4-(2-azepan-1-yl-ethoxy)-benzyl]-2-(4-hydroxy-phenyl)-3-methyl-1H-indol-5-ol acetic acid] | – | estrogen agonist-like effect in preventing bone loss | reducing cholesterol | little or no stimulation of uterine response | behaves as an estrogen antagonist
